Test results as given in article PMC9767310 (Journal of chemical information and modeling, 2022).
“Also recorded” adds a separate entry of the source. Counter-ions that a name gives are not always drawn.

Assays:
[1] = target: T1, αVβ3 (Homo sapiens, UniProt P05106+P06756); experiment: αVβ3-mediated cell adhesion to fibrinogen; format: cell-based
[2] = target: T1, αVβ3; experiment: Monoclonal antibody AP5 binding assay; format: cell-based
[3] = target: recombinant αVβ3 ectodomain (Homo sapiens, UniProt P05106+P06756); experiment: Negative-stain electron microscopy of αVβ3 ectodomain conformation

Question: Which IC50 [1] does the source give for Cl.Cl.O=C(NCCCc1ccc2c(n1)NCCC2)Nc1ccnc2ccccc12 [MSR03, 1-(quinolin-4-yl)-3-(3-(5,6,7,8-tetrahydro-1,8-naphthyridin-2-yl)propyl)urea dihydrochloride] here?
Answer: 1600 ± 580 nM

Question: And the “increase in potency vs ZINC72424116” value ([1]; adhesion IC50)?
Answer: 3.5 fold

Question: And the EC50 ([2]; EC50 (half-maximal exposure of the AP5 epitope), MSR03 dihydrochloride prepared in 1 M NaCl, n = 3)?
Answer: > 300000 nM

Question: What about the “exposure of the AP5 epitope (in words)” value ([2]; HEK-αVβ3 cells) of the same compound?
Answer: did not expose the AP5 epitope; also recorded: does not expose the epitope for the ligand-induced binding site of antibody AP5

Question: What about the “receptor extension and swing-out by negative-stain EM (in words)” value [3] of the same compound?
Answer: does not induce receptor extension and swing-out

Question: And the “percentage of αVβ3 in the active, extended-open conformation” value ([3]; 312 μM, control 5%)?
Answer: did not increase this percentage

Question: Which IC50 [1] does the source give for c1ccc2c(N3CCN(Cc4ccc5c(n4)NCCC5)CC3)ccnc2c1 [MSR02, 7-((4-(quinolin-4-yl)piperazin-1-yl)methyl)-1,2,3,4-tetrahydro-1,8-naphthyridine] here?
Answer: 2000 ± 1730 nM

Question: How did the IC50 [1] turn out when OCC[C@@H]1CN(c2ccnc3ccccc23)CCN1Cc1ccc2c(n1)NCCC2 [MSR01R, (R)-2-(4-(quinolin-4-yl)-1-((5,6,7,8-tetrahydro-1,8-naphthyridin-2-yl)methyl)piperazin-2-yl)ethan-1-ol hydrochloride] was run?
Answer: 1300 ± 330 nM

Question: Which IC50 [1] does the source give for OCC[C@H]1CN(c2ccnc3ccccc23)CCN1Cc1ccc2c(n1)NCCC2 [MSR01S, (S)-2-(4-(quinolin-4-yl)-1-((5,6,7,8-tetrahydro-1,8-naphthyridin-2-yl)methyl)-piperazin-2-yl)ethan-1-ol hydrochloride] here?
Answer: 1000 ± 300 nM

Question: With COc1ccc([C@H](CC(=O)O)N2CCN(CCCc3ccc4c(n3)NCCC4)C2=O)cn1 [MK-429, reference compound] as the compound, how does the “inhibition of αVβ3-mediated cell adhesion (positive control)” value ([1]; 3 nM) read?
Answer: > 90%
